PubChem BioAssay AID248 (DTP/NCI, 2004)
Values joined by “and” are separate entries in the source; they are usually repeats but may differ in a detail not shown here. Equal values may be shown once. Inconclusive results and toxic doses are left out. No stated cut-off is given here; in the data, active means T/C of 150% or more; inactive means T/C below 125%.

Tested on: L1210 leukemia ip in BDF1 mice, survival T/C
Experiment: NCI In Vivo Anticancer Drug Screen. Data for tumor model L1210 Leukemia (intraperitoneal) in B6D2F1 (BDF1) mice
Settings: endpoint: mean survival time, higher = longer survival
In short: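 Transplantable tumor model; survival measured in treated vs vehicle control mice. Value = treated/control.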

[1] = dose: 100.0 mg/kg/injection, schedule: Q01DX009 (ip), vehicle: Klucel (hydroxypropylcellulose) (HPC)
[2] = dose: 200.0 mg/kg/injection, schedule: Q01DX009 (ip), vehicle: Klucel (hydroxypropylcellulose) (HPC)
[3] = dose: 400.0 mg/kg/injection, schedule: Q01DX009 (ip), vehicle: Klucel (hydroxypropylcellulose) (HPC)
[4] = dose: 100.0 mg/kg/injection, schedule: Q04DX002 (ip), vehicle: saline with Tween-80
[5] = dose: 200.0 mg/kg/injection, schedule: Q04DX002 (ip), vehicle: saline with Tween-80
[6] = dose: 100.0 mg/kg/injection, schedule: Q01DX001 (ip), vehicle: saline
[7] = dose: 200.0 mg/kg/injection, schedule: Q01DX001 (ip), vehicle: saline
[8] = dose: 400.0 mg/kg/injection, schedule: Q01DX001 (ip), vehicle: saline
[9] = dose: 100.0 mg/kg/injection, schedule: Q01DX001 (ip), vehicle: saline with Tween-80
[10] = dose: 100.0 mg/kg/injection, schedule: Q04DX002 (ip), vehicle: Klucel (hydroxypropylcellulose) (HPC)
[11] = dose: 200.0 mg/kg/injection, schedule: Q04DX002 (ip), vehicle: Klucel (hydroxypropylcellulose) (HPC)
[12] = dose: 400.0 mg/kg/injection, schedule: Q04DX002 (ip), vehicle: Klucel (hydroxypropylcellulose) (HPC)
[13] = dose: 100.0 mg/kg/injection, schedule: Q01DX001 (ip), vehicle: carboxymethylcellulose (CMC)
[14] = dose: 200.0 mg/kg/injection, schedule: Q01DX001 (ip), vehicle: carboxymethylcellulose (CMC)
[15] = dose: 100.0 mg/kg/injection, schedule: Q01DX009 (ip), vehicle: saline with Tween-80
[16] = dose: 200.0 mg/kg/injection, schedule: Q01DX009 (ip), vehicle: saline with Tween-80
[17] = dose: 100.0 mg/kg/injection, schedule: Q04DX003 (ip), vehicle: saline with Tween-80
[18] = dose: 200.0 mg/kg/injection, schedule: Q04DX003 (ip), vehicle: saline with Tween-80
[19] = dose: 400.0 mg/kg/injection, schedule: Q04DX003 (ip), vehicle: saline with Tween-80
[20] = dose: 100.0 mg/kg/injection, schedule: Q04DX003 (ip), vehicle: Klucel (hydroxypropylcellulose) (HPC)

Measured: T/C

CC(=O)Nc1nc(Cl)c2ncn(C3CC(OC(=O)c4ccc(C)cc4)C(COC(=O)c4ccc(C)cc4)O3)c2n1 (stereo not given)
inactive: dose: 100.0 mg/kg/injection, schedule: Q01DX005 (ip), vehicle: saline 109 % of control and 114 % of control | dose: 100.0 mg/kg/injection, schedule: Q01DX009 (ip), vehicle: saline 102 % of control | dose: 200.0 mg/kg/injection, schedule: Q01DX005 (ip), vehicle: saline 103 % of control and 104 % of control | dose: 200.0 mg/kg/injection, schedule: Q01DX009 (ip), vehicle: saline 102 % of control | dose: 400.0 mg/kg/injection, schedule: Q01DX009 (ip), vehicle: saline 107 % of control

[N-]=[N+]=Nc1cnn(-c2ccccc2)c(=O)c1Cl
inactive: dose: 18.75 mg/kg/injection, schedule: Q01DX009 (ip), vehicle: saline with Tween-80 105 % of control | dose: 37.5 mg/kg/injection, schedule: Q01DX009 (ip), vehicle: saline with Tween-80 92 % of control | dose: 75.0 mg/kg/injection, schedule: Q01DX009 (ip), vehicle: saline with Tween-80 101 % of control

O=C(Nc1cccc([N+](=O)[O-])c1)Nc1ccc(F)c([N+](=O)[O-])c1
inactive: [1] 102 % of control | [2] 101 % of control | [3] 98 % of control

CC1(C)CSCC(C)(C)/C(=N/O)C1=O
inactive: dose: 50.0 mg/kg/injection, schedule: Q04DX002 (ip), vehicle: saline with Tween-80 101 % of control | [4] 112 % of control | [5] 101 % of control

O=C(O)c1ccc([N+](=O)[O-])cc1S(=O)(=O)O
inactive: [6] 102 % of control | [7] 102 % of control | [8] 100 % of control

O=C(Oc1ccccc1)c1ccc2[nH]c(=O)c(C(=O)O)nc2c1
inactive: dose: 25.0 mg/kg/injection, schedule: Q01DX001 (ip), vehicle: saline with Tween-80 96 % of control | dose: 50.0 mg/kg/injection, schedule: Q01DX001 (ip), vehicle: saline with Tween-80 100 % of control | [9] 98 % of control

O=P(c1ccccc1)(c1ccccc1)C1(O)CCCCC1Cl (stereo not given)
inactive: [6] 105 % of control | [7] 96 % of control | [8] 100 % of control

O=C(NCCCCCSC(=O)c1ccccc1)c1ccccc1
inactive: [10] 90 % of control | [11] 94 % of control | [12] 90 % of control

CC(O)CN1c2ccccc2Sc2ccc(Cl)cc21 (stereo not given)
inactive: [13] 97 % of control | [14] 92 % of control | dose: 400.0 mg/kg/injection, schedule: Q01DX001 (ip), vehicle: carboxymethylcellulose (CMC) 95 % of control

O=C(O)CSc1ccc(NC(=O)NC2CCCCC2)cc1
inactive: [15] 96 % of control | dose: 100.0 mg/kg/injection, schedule: Q04DX003 (ip), vehicle: saline sonified 114 % of control | [16] 91 % of control | dose: 200.0 mg/kg/injection, schedule: Q04DX003 (ip), vehicle: saline sonified 89 % of control | dose: 400.0 mg/kg/injection, schedule: Q01DX009 (ip), vehicle: saline with Tween-80 88 % of control | dose: 400.0 mg/kg/injection, schedule: Q04DX003 (ip), vehicle: saline sonified 96 % of control

CC(=O)C(C(c1ccccc1)N1CCOCC1)N1CCOCC1 (stereo not given)
inactive: [10] 100 % of control | [17] 97 % of control | [11] 110 % of control | [18] 96 % of control | [12] 100 % of control | [19] 93 % of control

O=C1C(Br)(Br)CCCCC1(c1ccccc1)c1ccccc1
inactive: [17] 101 % of control | [18] 103 % of control | [19] 87 % of control

Cc1cc(C)c(-n2c(C)cc(C(=O)O)c2C)c(C)c1C(=O)O
inactive: dose: 100.0 mg/kg/injection, schedule: Q01DX001 (ip), vehicle: alcohol 102 % of control | dose: 200.0 mg/kg/injection, schedule: Q01DX001 (ip), vehicle: alcohol 96 % of control | dose: 400.0 mg/kg/injection, schedule: Q01DX001 (ip), vehicle: alcohol 97 % of control

Cc1cccc(C)c1Nc1n[nH]c(=S)s1
inactive: [4] 102 % of control | [5] 105 % of control | dose: 400.0 mg/kg/injection, schedule: Q04DX002 (ip), vehicle: saline with Tween-80 105 % of control

CCOC(=O)c1ccc(NC(=O)Oc2ccccc2C(=O)OCc2ccccc2)cc1
inactive: [1] 98 % of control | [2] 95 % of control | [3] 96 % of control

CCOC(=O)C(C)(Br)C(Br)c1ccc([N+](=O)[O-])cc1 (stereo not given)
inactive: [1] 96 % of control | [20] 101 % of control | [2] 93 % of control | dose: 200.0 mg/kg/injection, schedule: Q04DX003 (ip), vehicle: Klucel (hydroxypropylcellulose) (HPC) 101 % of control | [3] 98 % of control | dose: 400.0 mg/kg/injection, schedule: Q04DX003 (ip), vehicle: Klucel (hydroxypropylcellulose) (HPC) 108 % of control

C=CCNc1ccnc(SCc2ccccc2)n1
inactive: dose: 100.0 mg/kg/injection, schedule: Q01DX009 (ip), vehicle: gum acacia 93 % of control | dose: 100.0 mg/kg/injection, schedule: Q04DX003 (ip), vehicle: gum acacia 97 % of control | dose: 200.0 mg/kg/injection, schedule: Q01DX009 (ip), vehicle: gum acacia 110 % of control | dose: 200.0 mg/kg/injection, schedule: Q04DX003 (ip), vehicle: gum acacia 97 % of control | dose: 400.0 mg/kg/injection, schedule: Q01DX009 (ip), vehicle: gum acacia 97 % of control | dose: 400.0 mg/kg/injection, schedule: Q04DX003 (ip), vehicle: gum acacia 92 % of control

Cc1ccc(CNC(=O)NC(C)(C)C)c(C)c1
inactive: [1] 97 % of control | [2] 104 % of control | [3] 92 % of control

O=C(CNC(=O)Nc1ccc(Cl)c(Cl)c1)N/N=C/c1c(O)ccc2ccccc12
inactive: dose: 50.0 mg/kg/injection, schedule: Q01DX009 (ip), vehicle: saline with Tween-80 93 % of control | [15] 93 % of control | [16] 91 % of control

CCCCCC(=O)CC(=O)c1cccs1
inactive: dose: 200.0 mg/kg/injection, schedule: Q01DX Z (ip), vehicle: other 100 % of control | dose: 400.0 mg/kg/injection, schedule: Q01DX Z (ip), vehicle: other 103 % of control

Nc1nc(=S)c2nnn(C3OC(CO)C(O)C3O)c2[nH]1 (stereo not given)
inactive: [9] 104 % of control | dose: 200.0 mg/kg/injection, schedule: Q01DX001 (ip), vehicle: saline with Tween-80 104 % of control | dose: 400.0 mg/kg/injection, schedule: Q01DX001 (ip), vehicle: saline with Tween-80 90 % of control

CCC(=O)OC1(c2ccccc2)CCN(CCC(=O)c2ccccc2)CC1
inactive: dose: 25.0 mg/kg/injection, schedule: Q04DX003 (ip), vehicle: Klucel (hydroxypropylcellulose) (HPC) 103 % of control | dose: 50.0 mg/kg/injection, schedule: Q04DX003 (ip), vehicle: Klucel (hydroxypropylcellulose) (HPC) 101 % of control | [20] 95 % of control and 98 % of control

Cc1ccc(S(=O)(=O)F)cc1N
inactive: dose: 25.0 mg/kg/injection, schedule: Q01DX009 (ip), vehicle: carboxymethylcellulose (CMC) 95 % of control and 100 % of control | dose: 25.0 mg/kg/injection, schedule: Q04DX002 (ip), vehicle: carboxymethylcellulose (CMC) 100 % of control and 106 % of control | dose: 50.0 mg/kg/injection, schedule: Q01DX001 (ip), vehicle: carboxymethylcellulose (CMC) 104 % of control and 87 % of control | dose: 50.0 mg/kg/injection, schedule: Q01DX009 (ip), vehicle: carboxymethylcellulose (CMC) 103 % of control and 88 % of control | dose: 50.0 mg/kg/injection, schedule: Q04DX002 (ip), vehicle: carboxymethylcellulose (CMC) 93 % of control and 100 % of control | dose: 50.0 mg/kg/injection, schedule: Q04DX003 (ip), vehicle: carboxymethylcellulose (CMC) 98 % of control and 90 % of control | [13] 101 % of control and 104 % of control | dose: 100.0 mg/kg/injection, schedule: Q04DX002 (ip), vehicle: carboxymethylcellulose (CMC) 107 % of control and 90 % of control | dose: 100.0 mg/kg/injection, schedule: Q04DX003 (ip), vehicle: carboxymethylcellulose (CMC) 94 % of control and 87 % of control | [14] 106 % of control and 111 % of control | dose: 200.0 mg/kg/injection, schedule: Q04DX003 (ip), vehicle: carboxymethylcellulose (CMC) 96 % of control and 87 % of control
